{
  "source": "patent US20180030108A1",
  "about": "“NOVEL VOLTAGE-DEPENDENT ION CHANNEL FUSIONS AND METHOD OF USE THEREOF” (UNIVERSITE DE BORDEAUX, priority 2015, published 2018)",
  "key": {"TRPV4-Luc/YFP-CaM": {"molecular_target": "T1, TRPV4-Luc/YFP-CaM (Homo sapiens, UniProt Q9HBA0)", "T1 construct": "expressed in transfected cells; host or cells: HEK293T", "T1 sequence (Q9HBA0 whole entry, the tested form may be a part)": "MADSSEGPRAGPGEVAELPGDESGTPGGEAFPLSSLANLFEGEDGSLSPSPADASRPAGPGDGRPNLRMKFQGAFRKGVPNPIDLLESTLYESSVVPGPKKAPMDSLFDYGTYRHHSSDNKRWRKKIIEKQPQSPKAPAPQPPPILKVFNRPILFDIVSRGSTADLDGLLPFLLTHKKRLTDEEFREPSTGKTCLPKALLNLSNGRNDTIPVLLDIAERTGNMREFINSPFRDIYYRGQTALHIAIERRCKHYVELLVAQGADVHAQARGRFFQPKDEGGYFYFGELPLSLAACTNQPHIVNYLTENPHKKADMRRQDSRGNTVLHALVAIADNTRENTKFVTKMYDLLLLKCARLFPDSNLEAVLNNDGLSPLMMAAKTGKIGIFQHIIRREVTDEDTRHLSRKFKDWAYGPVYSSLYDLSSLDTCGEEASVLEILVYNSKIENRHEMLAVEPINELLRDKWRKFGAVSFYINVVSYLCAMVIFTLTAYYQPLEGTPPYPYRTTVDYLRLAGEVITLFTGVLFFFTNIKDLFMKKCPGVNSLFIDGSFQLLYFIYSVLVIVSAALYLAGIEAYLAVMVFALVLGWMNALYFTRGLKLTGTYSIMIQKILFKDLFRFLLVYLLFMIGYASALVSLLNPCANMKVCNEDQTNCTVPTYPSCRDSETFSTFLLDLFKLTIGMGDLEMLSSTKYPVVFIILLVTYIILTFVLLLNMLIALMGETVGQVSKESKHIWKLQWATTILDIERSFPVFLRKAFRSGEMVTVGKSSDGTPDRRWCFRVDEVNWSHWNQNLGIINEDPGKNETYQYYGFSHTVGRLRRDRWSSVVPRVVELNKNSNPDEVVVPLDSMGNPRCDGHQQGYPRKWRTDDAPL", "experiment": "Intermolecular TRPV4-Luc/YFP-CaM BRET test in HEK293T cells", "type": "cell-based", "description": "An intermolecular TRPV4 BRET probe where the RLuc was fused to the TRPV4 in C-terminal and YFP was fused to the N-terminus part of Calmodulin. Kinetic (FIG. 14A) and dose response curve (FIG. 14B) of the effect of the TRPV4 agonist GSK1016790A on HEK293T cells expressing the TRPV4-Luc/YFP-CaM constructs were obtained. In FIG. 14A, cells were activated with 1 μM of agonist at the time indicated with an arrow. In FIG. 14B, the test was done in presence (square) or absence of the TRPV inhibitor Ruthenium Red (10 μM)."}, "wild-type TRPV1": {"molecular_target": "T2, wild-type TRPV1 (Homo sapiens, UniProt Q8NER1)", "T2 construct": "expressed in transfected cells; host or cells: HEK293T", "T2 sequence (Q8NER1 whole entry)": "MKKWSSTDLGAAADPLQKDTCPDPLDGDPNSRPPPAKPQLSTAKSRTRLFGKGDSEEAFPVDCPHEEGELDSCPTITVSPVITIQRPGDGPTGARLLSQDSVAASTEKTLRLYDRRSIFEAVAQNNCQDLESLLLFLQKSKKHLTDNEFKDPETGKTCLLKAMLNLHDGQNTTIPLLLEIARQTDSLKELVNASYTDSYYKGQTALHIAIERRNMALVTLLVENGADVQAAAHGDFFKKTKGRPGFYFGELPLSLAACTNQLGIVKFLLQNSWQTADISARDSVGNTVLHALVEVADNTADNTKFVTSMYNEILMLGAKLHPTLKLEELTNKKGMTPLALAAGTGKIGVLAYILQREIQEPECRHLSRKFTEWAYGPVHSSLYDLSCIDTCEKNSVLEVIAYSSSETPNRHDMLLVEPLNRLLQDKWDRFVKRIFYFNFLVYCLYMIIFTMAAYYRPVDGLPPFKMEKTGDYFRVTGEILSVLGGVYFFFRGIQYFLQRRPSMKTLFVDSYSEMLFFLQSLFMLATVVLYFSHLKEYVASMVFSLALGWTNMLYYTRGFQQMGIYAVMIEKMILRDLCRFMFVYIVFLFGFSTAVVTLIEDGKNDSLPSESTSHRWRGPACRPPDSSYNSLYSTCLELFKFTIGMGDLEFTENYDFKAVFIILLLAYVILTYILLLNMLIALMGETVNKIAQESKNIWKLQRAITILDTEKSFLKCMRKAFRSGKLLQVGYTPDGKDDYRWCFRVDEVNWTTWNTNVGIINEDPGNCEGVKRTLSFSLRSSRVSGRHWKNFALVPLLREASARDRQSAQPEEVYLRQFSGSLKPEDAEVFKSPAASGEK", "experiment": "Intracellular calcium by Fura 2-AM, HEK293T cells expressing wild-type TRPV1", "type": "cell-based", "conditions": "1 μM capsaicin, 37° C."}, "[1]": {"system": "HEK293T cells transfected with an empty vector", "experiment": "Intracellular calcium by Fura 2-AM, HEK293T cells transfected with an empty vector", "type": "cell-based, human", "conditions": "1 μM capsaicin, 37° C."}, "TRPV1-Luc/YFP-CaM": {"molecular_target": "TRPV1-Luc/YFP-CaM (Homo sapiens, UniProt Q8NER1)", "sequence (Q8NER1 whole entry)": "as above", "conditions": "for effect on the CAPS dose response curve: cells pre-incubated with 1 μM inhibitor (FIG. 10)"}, "YFP-hTRPV1-rLuc [2]": {"molecular_target": "T3, YFP-hTRPV1-rLuc (Homo sapiens, UniProt Q8NER1)", "T3 construct": "expressed in transfected cells; host or cells: HEK293T", "T3 sequence (Q8NER1 whole entry)": "as above", "experiment": "Intracellular calcium by Fura 2-AM, HEK293T cells expressing YFP-hTRPV1-rLuc", "type": "cell-based", "conditions": "1 μM capsaicin, 37° C."}, "YFP-hTRPV1-rLuc [3]": {"molecular_target": "T3, YFP-hTRPV1-rLuc", "experiment": "Intramolecular YFP-hTRPV1-rLuc BRET probe in HEK293T cells", "type": "cell-based", "conditions": "for effect on the CAPS dose response curve: cells pre-incubated with 1 μM inhibitor (FIG. 10); for effect on the capsaicin dose-response curve: pre-incubated 5 minutes before readings, 37° C. (FIG. 6)"}, "YFP-hTRPV3-rLuc": {"molecular_target": "YFP-hTRPV3-rLuc (Homo sapiens, UniProt Q8NET8)", "sequence (Q8NET8 whole entry)": "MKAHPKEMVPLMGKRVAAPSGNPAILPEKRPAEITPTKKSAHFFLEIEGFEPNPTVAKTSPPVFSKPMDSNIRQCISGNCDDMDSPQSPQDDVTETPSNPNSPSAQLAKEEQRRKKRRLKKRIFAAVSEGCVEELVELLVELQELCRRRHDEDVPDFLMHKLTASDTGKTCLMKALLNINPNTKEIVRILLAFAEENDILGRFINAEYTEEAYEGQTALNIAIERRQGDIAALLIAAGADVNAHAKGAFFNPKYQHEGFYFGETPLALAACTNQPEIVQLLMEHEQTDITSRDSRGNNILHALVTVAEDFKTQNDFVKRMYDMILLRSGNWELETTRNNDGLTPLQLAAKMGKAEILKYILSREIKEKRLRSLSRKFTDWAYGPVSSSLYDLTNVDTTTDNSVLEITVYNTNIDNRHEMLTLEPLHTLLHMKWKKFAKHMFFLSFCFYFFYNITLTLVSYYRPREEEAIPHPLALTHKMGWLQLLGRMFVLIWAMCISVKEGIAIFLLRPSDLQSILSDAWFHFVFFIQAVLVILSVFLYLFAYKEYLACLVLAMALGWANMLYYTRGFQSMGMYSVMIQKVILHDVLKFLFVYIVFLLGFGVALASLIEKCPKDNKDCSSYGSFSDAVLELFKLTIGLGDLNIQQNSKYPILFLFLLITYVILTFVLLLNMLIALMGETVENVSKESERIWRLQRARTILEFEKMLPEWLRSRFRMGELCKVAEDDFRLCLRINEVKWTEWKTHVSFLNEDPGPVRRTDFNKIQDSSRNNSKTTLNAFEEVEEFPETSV", "conditions": "33° C., kinetic"}, "[4]": {"molecular_target": "TRPV1-Luc (human; Renilla) (UniProt Q8NER1)", "sequence (Q8NER1 whole entry)": "as the sequence (Q8NER1 whole entry) above", "experiment": "intermolecular BRET kinetics in living HEK293T cells co-expressing TRPV1-Luc and YFP-CaM, after capsaicin injection"}, "[5]": {"conditions": "temperature rise from 25° C. to 42° C."}, "[6]": {"conditions": "HEK293T cells pre-incubated with the antagonist, heated"}, "[7]": {"conditions": "HEK293T cells pre-incubated with the antagonist"}},
  "data": [
    {"molecule": "CC(C)C[C@H](NC(=O)c1cc2ccccc2s1)C(=O)N1CCN(C(=O)[C@H](CO)NS(=O)(=O)c2ccc(Cl)cc2Cl)CC1", "note": "[GSK1016790A]", "values": [
      {"measurement": "EC50", "setting": "TRPV4-Luc/YFP-CaM; control condition (absence of Ruthenium Red), log value", "value": 12.9, "unit": "µM"}
    ]},
    {"molecule": "COc1cc(CNC(=O)CCCC/C=C/C(C)C)ccc1O", "note": "[capsaicin]", "values": [
      {"measurement": "intracellular calcium (Fura 2, I340/I380)", "setting": "wild-type TRPV1", "value": "rapid and important increase of intracellular calcium"},
      {"measurement": "intracellular calcium (Fura 2, I340/I380)", "setting": "[1]", "value": "No calcium increase"},
      {"measurement": "time constant (Tau) of BRET increase", "setting": "TRPV1-Luc/YFP-CaM; after CAPS injection", "value": 27, "unit": "s"},
      {"measurement": "BRET over the basal signal following exposure", "setting": "TRPV1-Luc/YFP-CaM; kinetic, HEK293T cells", "value": "robust increase of BRET"},
      {"measurement": "effect of temperature rise on capsaicin dose response", "setting": "TRPV1-Luc/YFP-CaM; [5]", "value": "leftward shift of the power of capsaicin while the efficacy remained unchanged"},
      {"measurement": "intracellular calcium (Fura 2, I340/I380)", "setting": "YFP-hTRPV1-rLuc [2]", "value": "rapid and important increase of intracellular calcium"},
      {"measurement": "time constant (Tau) of BRET increase", "setting": "YFP-hTRPV1-rLuc [3]; after CAPS injection", "value": 2, "unit": "s"},
      {"measurement": "BRET over the basal signal following exposure", "setting": "YFP-hTRPV1-rLuc [3]; kinetic, HEK293T cells", "value": "robust increase of BRET"},
      {"measurement": "effect of temperature rise on capsaicin dose response", "setting": "YFP-hTRPV1-rLuc [3]; [5]", "value": "leftward shift of the power of capsaicin while the efficacy remained unchanged"}
    ]},
    {"molecule": "CC(=O)Nc1nc2c(Oc3cc(-c4ccc(C(F)(F)F)cc4)ncn3)cccc2s1", "note": "[AMG517]", "values": [
      {"measurement": "effect on the CAPS dose response curve", "setting": "TRPV1-Luc/YFP-CaM", "value": "right shift"},
      {"measurement": "temperature-induced BRET increase", "setting": "TRPV1-Luc/YFP-CaM; cells preincubated with inhibitor, temperature increased from 25° C. to 50° C.", "value": "no significant BRET increase"},
      {"measurement": "effect on the CAPS dose response curve", "setting": "YFP-hTRPV1-rLuc [3]", "value": "right shift"},
      {"measurement": "effect on the capsaicin dose-response curve", "setting": "YFP-hTRPV1-rLuc [3]", "value": "right-shift"}
    ]},
    {"molecule": "NCCOB(c1ccccc1)c1ccccc1", "note": "[2-APB, 2-Aminoethyl diphenylborinate]", "values": [
      {"measurement": "evolution of the BRET signal after addition to the culture media", "setting": "YFP-hTRPV3-rLuc", "value": "increase in the BRET value within seconds"}
    ]},
    {"molecule": "CCCCCCCCC(=O)NCc1cc(OC)c(O)cc1I", "note": "[6 iodo-CAPS]", "values": [
      {"measurement": "temperature from which BRET signal decreased", "setting": "YFP-hTRPV1-rLuc [3]; [6]", "value": 48, "unit": "°C"},
      {"measurement": "ratio of net BRET as initially measured at 29.5° C.", "setting": "YFP-hTRPV1-rLuc [3]; [7]", "value": 0.28}
    ]},
    {"molecule": "N.N.N.N.N.N.N.N.N.N.N.N.N.N.[Cl-].[Cl-].[Cl-].[Cl-].[Cl-].[Cl-].[O-2].[O-2].[Ru+3].[Ru+3].[Ru+4]", "note": "[Ruthenium Red]", "values": [
      {"measurement": "BRET increase induced by the TRPV4 agonist GSK1016790A", "setting": "TRPV4-Luc/YFP-CaM; Ruthenium Red 10 μM", "value": "No BRET increase"}
    ]},
    {"molecule": "YFP-CaM (from UniProt P0DP23 1-149)", "values": [
      {"measurement": "time constant of the BRET increase after capsaicin", "setting": "[4]", "value": 27, "unit": "s"}
    ]},
    {"molecule": "Oc1cc2c(cc1O)CN(C(=S)NCCc1ccc(Cl)cc1)CCC2", "note": "[Capsazepine]", "values": [
      {"measurement": "effect on the CAPS dose response curve", "setting": "TRPV1-Luc/YFP-CaM", "value": "right shift"},
      {"measurement": "temperature where BRET signal started to decrease", "setting": "YFP-hTRPV1-rLuc [3]; 1 μM CPZ, medium heated from 25° C. to 50° C.", "value": 47, "unit": "°C"},
      {"measurement": "effect on the CAPS dose response curve", "setting": "YFP-hTRPV1-rLuc [3]", "value": "right shift"},
      {"measurement": "effect on the capsaicin dose-response curve", "setting": "YFP-hTRPV1-rLuc [3]", "value": "right-shift"}
    ]},
    {"molecule": "c1ccc(C2(c3ccccc3)CCCO2)cc1", "note": "[2,2-Diphenyltetrahydrofuran]", "values": [
      {"measurement": "temperature at which BRET signal plateaued", "setting": "YFP-hTRPV1-rLuc [3]; [6]", "value": 52, "unit": "°C"},
      {"measurement": "ratio of net BRET as initially measured at 29.5° C.", "setting": "YFP-hTRPV1-rLuc [3]; [7]", "value": 0.93}
    ]}
  ]
}
